Target: T1, Human HIF-PHD2 (Homo sapiens, UniProt Q9GZT9)
T1 construct: FLAG-tagged full length PHD2 expressed in and purified from baculovirus-infected Sf9 cells; FLAG; made in house; host or cells: baculovirus-infected Sf9 cells
Assay: HIF-PHD2 inhibition assay: time resolved fluorescence detection of HIF peptide hydroxylation
Assay type: biochemical
Details: FLAG-tagged full length PHD2; 0.2 μM 2-oxoglutarate, 0.5 μM HIF-1α peptide; 45 minutes at room temperature
Method: To each well of a 384-well plate, 1 μL of test compounds in DMSO (final concentration ranging from 0.3 nM to 10 μM) were added into 20 μl of assay buffer (50 mM Tris pH 7.4/0.01% Tween-20/0.1 mg/ml bovine serum albumin/10 μM ferrous sulfate/1 mM sodium ascorbate/20 μg/ml catalase) containing 0.15 μg/ml FLAG-tagged full length PHD2 expressed in and purified from baculovirus-infected Sf9 cells. After a 5 min preincubation at room temperature, the enzymatic reactions were initiated by the addition of 4 μL of substrates final concentrations of 0.2 μM 2-oxoglutarate and 0.5 μM HIF-la peptide biotinyl-[…] […] After incubation for 45 minutes at room temperature, the reactions were terminated by the addition of a 25 μL quench/detection mix to a final concentration of 1 mM ortho-phenanthroline, 0.1 mM EDTA, 0.5 nM anti-(His)6 LANCE reagent (Perkin-Elmer Life Sciences), 100 nM AF647-labeled streptavidin (Invitrogen), and 2 μg/ml (His)6-VHL complex {S. Tan Protein Expr. Purif. […] Inhibition of the catalytic activity of HIF-PHD1 and HIF-PHD3 can be determined similarly, except for HIF-PHD3, final concentrations of 4 μM 2-oxoglutarate is used during the reaction.

T1 sequence (Q9GZT9 whole entry): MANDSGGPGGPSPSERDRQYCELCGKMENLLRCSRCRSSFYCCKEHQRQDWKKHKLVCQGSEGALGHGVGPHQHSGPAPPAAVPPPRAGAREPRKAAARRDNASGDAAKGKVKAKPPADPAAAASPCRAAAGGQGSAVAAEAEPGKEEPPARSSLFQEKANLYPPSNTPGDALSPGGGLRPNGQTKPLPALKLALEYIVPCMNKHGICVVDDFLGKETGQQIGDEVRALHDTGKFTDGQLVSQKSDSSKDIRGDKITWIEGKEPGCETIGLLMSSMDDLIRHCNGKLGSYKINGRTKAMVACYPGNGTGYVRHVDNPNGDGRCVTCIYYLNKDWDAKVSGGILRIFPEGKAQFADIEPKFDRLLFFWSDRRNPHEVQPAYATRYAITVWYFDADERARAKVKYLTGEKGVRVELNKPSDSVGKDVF

| SMILES | IC50 [nM] |
| --- | --- |
| O=C(N[C@H]1C[C@@H]1C(=O)O)c1cc(O)c(C(=O)NC(c2ccccc2)c2ccccc2)cn1 [Example 15, (1S,2S)-2-(5-(benzhydrylcarbamoyl)-4-hydroxypicolinamido)cyclopropanecarboxylic acid] | 6.69 |
| O=C(N[C@@H]1C[C@H]1C(=O)O)c1cc(O)c(C(=O)NC(c2ccccc2)c2ccccc2)cn1 [Example 16, (1R,2R)-2-(5-(benzhydrylcarbamoyl)-4-hydroxypicolinamido)cyclopropanecarboxylic acid] | 6.55 |
| O=C(N[C@H]1C[C@H](C(=O)O)C1)c1cc(O)c(C(=O)NC(c2ccccc2)c2ccccc2)cn1 [Example 3] | 1.64 |
| O=C(NC12CC(C(=O)O)(C1)C2)c1cc(O)c(C(=O)NC(c2ccccc2)c2ccccc2)cn1 [Example 17, 3-(5-(benzhydrylcarbamoyl)-4-hydroxypicolinamido)bicyclo[1.1.1]pentane-1-carboxylic acid] | 23.4 |
| O=C(NCC(O)C(=O)O)c1cc(O)c(C(=O)NC(c2ccccc2)c2ccccc2)cn1 (stereo not shown) [Example 13, 3-(5-(benzhydrylcarbamoyl)-4-hydroxypicolinamido)-2-hydroxypropanoic acid] | 1.28 |
| O=C(NCC1(C(=O)O)CC1)c1cc(O)c(C(=O)NC(c2ccccc2)c2ccccc2)cn1 [Example 11, 1-((5-(benzhydrylcarbamoyl)-4-hydroxypicolinamido)methyl)cyclopropanecarboxylic acid] | 5.24 |
| CC(CNC(=O)c1cc(O)c(C(=O)NC(c2ccccc2)c2ccccc2)cn1)C(=O)O (stereo not shown) [Example 10, 3-(5-(benzhydrylcarbamoyl)-4-hydroxypicolinamido)-2-methylpropanoic acid] | 1.89 |
| COC(=O)C(C)CNC(=O)c1cc(O)c(C(=O)NC(c2ccccc2)c2ccccc2)cn1 (stereo not shown) [Example 3, methyl 3-(5-(benzhydrylcarbamoyl)-4-hydroxypicolinamido)-2-methylpropanoate] | 136 |
| CC(C)(CNC(=O)c1cc(O)c(C(=O)NC(c2ccccc2)c2ccccc2)cn1)C(=O)O [Example 14, 3-(5-(benzhydrylcarbamoyl)-4-hydroxypicolinamido)-2,2-dimethylpropanoic acid] | 3.61 |
| CCOC(=O)C1(CNC(=O)c2cc(O)c(C(=O)NC(c3ccc(Cl)cc3)c3ccc(Cl)cc3)cn2)CC1 [Example 5, ethyl 1-((5-((bis(4-chlorophenyl)methyl)carbamoyl)-4-hydroxypicolinamido)methyl) cyclopropanecarboxylate] | 184 |
| O=C(O)c1cnn(-c2cc(O)c(C(=O)NC(c3ccccc3)c3ccccc3)cn2)c1 [Example 1, 1-(5-(Benzhydrylcarbamoyl)-4-hydroxypyridin-2-yl)-1H-pyrazole-4-carboxylic acid] | 0.875 |

The remaining lines, values ahead:

| IC50 [nM] | SMILES |
| --- | --- |
| 89.1 | CCOC(=O)[C@H]1C[C@@H]1NC(=O)c1cc(O)c(C(=O)NC(c2ccccc2)c2ccccc2)cn1 [Example 6, (1S,2S)-ethyl 2-(5-(benzhydrylcarbamoyl)-4-hydroxypicolinamido)cyclopropanecarboxylate] |
| 1.02 | O=C(O)CCCNC(=O)c1cc(O)c(C(=O)NC(c2ccccc2)c2ccccc2)cn1 [Example 12, 4-(5-(benzhydrylcarbamoyl)-4-hydroxypicolinamido)butanoic acid] |
| 276 | CCOC(=O)C(C)(C)CNC(=O)c1cc(O)c(C(=O)NC(c2ccccc2)c2ccccc2)cn1 [Example 5, ethyl 3-(5-(benzhydrylcarbamoyl)-4-hydroxypicolinamido)-2,2-dimethylpropanoate] |
| 37.3 | CCOC(=O)[C@@H]1C[C@H]1NC(=O)c1cc(O)c(C(=O)NC(c2ccccc2)c2ccccc2)cn1 [Example 7, (1R,2R)-ethyl 2-(5-(benzhydrylcarbamoyl)-4-hydroxypicolinamido)cyclopropanecarboxylate] |
| 92.9 | CCOC(=O)CCNC(=O)c1cc(O)c(C(=O)NC(c2ccccc2)c2ccccc2)cn1 [Example 2, ethyl 3-(5-(benzhydrylcarbamoyl)-4-hydroxypicolinamido)propanoate] |
